Measured values published in patent US11780826B2 (Amgen Inc., priority 2017, dated 2023).

tested on: Bovine cardiac myofibrils; experiment: In vitro model of dose-dependent myofibril ATPase modulation (AC1.4, pyruvate kinase/lactate dehydrogenase-coupled ATPase assay at pCa25); type: biochemical; settings: concentration at which ATPase activity was 1.4-fold higher than the bottom of the dose curve, mean of a minimum of two independent tests
Summary of the method: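 Absorbance at 340 nm tracked ATP hydrolysis through pyruvate kinase/lactate dehydrogenase coupling (0.5 mM NADH, 1.5 mM PEP). Myofibrils from detergent-homogenized bovine heart, 1 mM ATP, pH 6.80, EGTA/CaCl2 buffering. Dose-response curves fitted with a four-parameter Hill equation.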

SMILES	AC1.4 [µM]
CS(=O)(=O)c1cccc(C(=O)N2[C@@H](C(=O)N[C@@H](c3cc(F)c(Cl)cc3F)C3COC3)C[C@H]3C[C@H]32)c1 [Example 74, (1R,3R,5R)-N-((R)-(4-chloro-2,5-difluorophenyl)(3-oxetanyl)methyl)-2-(3-(methylsulfonyl)benzoyl)-2-azabicyclo[3.1.0]hexane-3-carboxamide]	0.09935
CN(Cc1ccc(C(F)(F)F)cc1)C(=O)[C@H]1CCCN1C(=O)c1cccc(S(=O)(=O)N2CC(C#N)C2)c1 [Example 75, 1-((3-((3-cyano-1-azetidinyl)sulfonyl)phenyl)carbonyl)-N-methyl-N-(4-(trifluoromethyl)benzyl)-D-prolinamide]	0.1006
Cc1ccc(CNC(=O)[C@H]2CCCN2C(=O)c2cccc(S(=O)(=O)N3CC(C#N)C3)c2)c(F)c1 [Example 76, 1-((3-((3-cyano-1-azetidinyl)sulfonyl)phenyl)carbonyl)-N-(2-fluoro-4-methylbenzyl)-D-prolinamide]	0.1008
CCNc1ccc(S(C)(=O)=O)cc1C(=O)N1CCC[C@@H]1C(=O)N[C@@H](c1ccc(C(F)(F)F)cc1F)C1CC1 [Example 79, N-((R)-cyclopropyl(2-fluoro-4-(trifluoromethyl)phenyl)methyl)-1-(2-(ethylamino)-5-(methylsulfonyl)benzoyl)-D-prolinamide]	0.104
COC(=O)CS(=O)(=O)c1cccc(C(=O)N2[C@@H](C(=O)N[C@@H](c3cc(F)c(C(F)(F)F)cc3F)C3CC3)C[C@H]3C[C@H]32)c1 [Example 80, methyl((3-(((1R,3R,5R)-3-(((R)-cyclopropyl(2,5-difluoro-4-(trifluoromethyl)phenyl)methyl)carbamoyl)-2-azabicyclo[3.1.0]hexan-2-yl)carbonyl)phenyl)sulfonyl)acetate]	0.1046
CC(C)Nc1ccc(S(C)(=O)=O)cc1C(=O)N1CCC[C@@H]1C(=O)N[C@@H](c1ccc(C(F)(F)F)cc1F)C1CC1 [Example 81, N-((R)-cyclopropyl(2-fluoro-4-(trifluoromethyl)phenyl)methyl)-1-(5-(methylsulfonyl)-2-(2-propanylamino)benzoyl)-D-prolinamide]	0.1048
C[C@@H]1CCN(S(=O)(=O)N2CC(C#N)C2)C[C@H]1C(=O)N1CCC[C@@H]1C(=O)NCc1ccc(C(F)(F)F)cc1 [Example 82, 1-(((3S,4R)-1-((3-cyano-1-azetidinyl)sulfonyl)-4-methyl-3-piperidinyl)carbonyl)-N-(4-(trifluoromethyl)benzyl)-D-prolinamide]	0.1085
CC[C@H](NC(=O)[C@H]1CCCN1C(=O)c1cccc(S(=O)(=O)N2CC(C#N)C2)c1)c1ccc(C(F)(F)F)cc1 [Example 85, 1-(3-((3-cyano-1-azetidinyl)sulfonyl)benzoyl)-N-((1S)-1-(4-(trifluoromethyl)phenyl)propyl)-D-prolinamide]	0.1157
CCCS(=O)(=O)c1cccc(C(=O)N2CCCC[C@@H]2C(=O)N[C@@H](c2ccc(C(F)(F)F)cc2F)C2CC2)c1 [Example 89, (2R)-N-((R)-cyclopropyl(2-fluoro-4-(trifluoromethyl)phenyl)methyl)-1-(3-(propylsulfonyl)benzoyl)-2-piperidinecarboxamide]	0.1357
N#CC1CN(S(=O)(=O)N2CCC[C@H](C(=O)N3C[C@H]4C[C@H]4[C@@H]3C(=O)NCc3ccc(C(F)(F)F)cc3)C2)C1 [Example 90, (1R,2R,5S)-3-(((3S)-1-((3-cyano-1-azetidinyl)sulfonyl)-3-piperidinyl)carbonyl)-N-(4-(trifluoromethyl)benzyl)-3-azabicyclo[3.1.0]hexane-2-carboxamide]	0.1363
O=C(N[C@@H](c1cc(F)c(Cl)cc1F)C1CC1)[C@H]1C[C@H]2C[C@H]2N1C(=O)c1cccc(S(=O)(=O)C2CC2)c1 [Example 92, (1R,3R,5R)-N-((R)-(4-chloro-2,5-difluorophenyl)(cyclopropyl)methyl)-2-(3-(cyclopropylsulfonyl)benzoyl)-2-azabicyclo[3.1.0]hexane-3-carboxamide]	0.1388
N#CC1CN(S(=O)(=O)c2cccc(C(=O)N3Cc4ccccc4C3C(=O)NCc3ccc(C(F)(F)F)cc3)c2)C1 (stereo not drawn) [Example 93, 2-((3-((3-cyano-1-azetidinyl)sulfonyl)phenyl)carbonyl)-N-(4-(trifluoromethyl)benzyl)-2,3-dihydro-1H-isoindole-1-carboxamide]	0.1413
O=C(N[C@@H](c1cc(F)c(Cl)cc1F)C1COC1)[C@H]1C[C@H]2C[C@H]2N1C(=O)c1cccc(S(=O)(=O)CCO)c1 [Example 94, (1R,3R,5R)-N-((R)-(4-chloro-2,5-difluorophenyl)(3-oxetanyl)methyl)-2-(3-((2-hydroxyethyl)sulfonyl)benzoyl)-2-azabicyclo[3.1.0]hexane-3-carboxamide]	0.1425
N#CC1CN(S(=O)(=O)c2cccc(C(=O)N3CC(F)(F)C[C@@H]3C(=O)NCc3ccc(C(F)(F)F)nc3)c2)C1 [Example 95, 1-((3-((3-cyano-1-azetidinyl)sulfonyl)phenyl)carbonyl)-4,4-difluoro-N-((6-(trifluoromethyl)-3-pyridinyl)methyl)-D-prolinamide]	0.1446
COCC(NC(=O)[C@H]1CCCN1C(=O)[C@H]1CCCN(S(=O)(=O)N2CC(C#N)C2)C1)c1ccc(Cl)cc1 (stereo partly drawn) [Example 97, N-(-1-(4-chlorophenyl)-2-methoxyethyl)-1-(((3S)-1-((3-cyano-1-azetidinyl)sulfonyl)-3-piperidinyl)carbonyl)-D-prolinamide]	0.1466
Cc1ccc([C@@H](C)NC(=O)[C@H]2CCCN2C(=O)[C@H]2CCCN(S(=O)(=O)N3CC(C#N)C3)C2)c(F)c1 [Example 98, 1-(((3S)-1-((3-cyano-1-azetidinyl)sulfonyl)-3-piperidinyl)carbonyl)-N-((1R)-1-(2-fluoro-4-methylphenyl)ethyl)-D-prolinamide]	0.1474
N#CC1CN(S(=O)(=O)N2CCC[C@H](C(=O)N3CCC[C@@H]3C(=O)NCc3ccc(Cl)cc3Cl)C2)C1 [Example 99, 1-(((3S)-1-((3-cyano-1-azetidinyl)sulfonyl)-3-piperidinyl)carbonyl)-N-(2,4-dichlorobenzyl)-D-prolinamide]	0.1484

Second part, the compound after the results:

AC1.4 [µM]	SMILES
0.09025	CS(=O)(=O)C1CN(S(=O)(=O)N2CCC[C@H](C(=O)N3CCC[C@@H]3C(=O)NCc3ccc(C(F)(F)F)cc3)C2)C1 [Example 72, 1-(((3S)-1-((3-(methylsulfonyl)-1-azetidinyl)sulfonyl)-3-piperidinyl)carbonyl)-N-(4-(trifluoromethyl)benzyl)-D-prolinamide]
0.09745	C[C@@H](NC(=O)[C@H]1CCCN1C(=O)[C@@H]1CN(S(=O)(=O)N2CC(C#N)C2)CCO1)c1ccc(C(F)(F)F)cc1F [Example 73, 1-(((2S)-4-((3-cyano-1-azetidinyl)sulfonyl)-2-morpholinyl)carbonyl)-N-((1R)-1-(2-fluoro-4-(trifluoromethyl)phenyl)ethyl)-D-prolinamide]
0.1016	N#CC1CN(S(=O)(=O)N2CC(C(=O)N3CCC[C@@H]3C(=O)NCc3ccc(C(F)(F)F)cc3)CC(F)(F)C2)C1 (stereo partly drawn) [Example 77, 1-((-1-((3-cyano-1-azetidinyl)sulfonyl)-5,5-difluoro-3-piperidinyl)carbonyl)-N-(4-(trifluoromethyl)benzyl)-D-prolinamide]
0.1023	N#CC1CN(S(=O)(=O)N2CCC[C@H](C(=O)N3CCC[C@@H]3C(=O)N[C@H](CO)c3ccc(Cl)c(F)c3)C2)C1 [Example 78, N-((1S)-1-(4-chloro-3-fluorophenyl)-2-hydroxyethyl)-1-(((3S)-1-((3-cyano-1-azetidinyl)sulfonyl)-3-piperidinyl)carbonyl)-D-prolinamide]
0.1146	CS(=O)(=O)c1cc(F)cc(C(=O)N2[C@@H](C(=O)N[C@@H](c3cc(F)c(Cl)cc3F)C3COC3)C[C@H]3C[C@H]32)c1 [Example 83, (1R,3R,5R)-N-((R)-(4-chloro-2,5-difluorophenyl)(3-oxetanyl)methyl)-2-(3-fluoro-5-(methylsulfonyl)benzoyl)-2-azabicyclo[3.1.0]hexane-3-carboxamide]
0.1147	C[C@@H](NC(=O)[C@H]1CCCN1C(=O)[C@H]1CCCN(S(=O)(=O)N2CC(C#N)C2)C1)c1ccc(C(F)(F)F)cc1 [Example 84, 1-(((3S)-1-((3-cyano-1-azetidinyl)sulfonyl)-3-piperidinyl)carbonyl)-N-((1R)-1-(4-(trifluoromethyl)phenyl)ethyl)-D-prolinamide]
0.1344	N#CC1CN(S(=O)(=O)N2CCC[C@H](C(=O)N3CCC[C@@H]3C(=O)N[C@H](CO)c3ccc(C(F)(F)F)cc3)C2)C1 [Example 88, 1-(((3S)-1-((3-cyano-1-azetidinyl)sulfonyl)-3-piperidinyl)carbonyl)-N-((1S)-2-hydroxy-1-(4-(trifluoromethyl)phenyl)ethyl)-D-prolinamide]
0.1452	N#CC1CN(S(=O)(=O)c2cccc(C(=O)N3CCCCCC3C(=O)NCc3ccc(C(F)(F)F)cc3)c2)C1 (stereo not drawn) [Example 96, (2)-1-((3-((3-cyano-1-azetidinyl)sulfonyl)phenyl)carbonyl)-N-(4-(trifluoromethyl)benzyl)-2-azepanecarboxamide]
0.1502	N#CC1CN(S(=O)(=O)c2cccc(C(=O)N3CCC[C@@H]3C(=O)NCc3cc(F)cc(F)c3F)c2)C1 [Example 100, 1-(3-((3-cyano-1-azetidinyl)sulfonyl)benzoyl)-N-(2,3,5-trifluorobenzyl)-D-prolinamide]
0.1559	CC(C)(C)Nc1ccc(S(C)(=O)=O)cc1C(=O)N1[C@@H](C(=O)N[C@@H](c2ccc(C(F)(F)F)cc2F)C2CC2)C[C@H]2C[C@H]21 [Example 101, (1R,3R,5R)-N-((R)-cyclopropyl(2-fluoro-4-(trifluoromethyl)phenyl)methyl)-2-(2-((2-methyl-2-propanyl)amino)-5-(methylsulfonyl)benzoyl)-2-azabicyclo[3.1.0]hexane-3-carboxamide]
